From EP0528146A1, “N-phenylthiourea derivatives and pharmaceutical use thereof” (SANDOZ LTD., priority 1991, dated 1993)

Experiments:
Settings in all cases: in supplemented diet
HDL-cholesterol = assay: Test A: In vivo HDL-cholesterol test; parameters: species or system Male Sprague-Dawley rats
Procedure: a) Test A: In vivo HDL-cholesterol test: Male Sprague-Dawley rats weighing 200-225 g are housed two per cage and fed Purina Rodent Chow Special Mix 5001-S supplemented with 0.25 % cholic acid and 0.75 % cholesterol by Purina and water ad libitum for seven or eight days. Each test substance is then administered to a group of six rats in the supplemented diet for eight or twenty-one days, the test substance constituing 0.005-0.20 % of the diet. Body weight and food consumption data are recorded prior to diet administration, prior to test substance administration and at termination. Typical doses of the test substance are 4-200 mg/kg/day. At termination, the rats are anesthetized, sacrificed by exsanguination, the blood is collected, kept on ice while clotting, centrifuged, and the serum is separated. […] Remaining sera aliquots are refrigerated and frozen for storage. HDL is isolated by micro-ultracentrifugation (mUC) or fast protein liquid chromatography (FPLC) techniques. The mUC method is as follows: 175 µl of the 1.06 g/ml density-adjusted blood serum is centrifuged at 42000 rpm in a Beckmann 42.2 Ti rotor at 20°C for 2.5 hours. 95 µl is fractionated from the top, leaving 80 µl in the bottom. FPLC fractionation is performed by Superose^R 6 (highly cross-linked beaded agarose having a dry bead diameter of 20-40 µm) gel permeation chromatography using the method of Kieft et al., J.Lipid Res. 32 (1991) 859-866 modified by the technique described in France et al., Laboratory Robotics and Automation 2 (1990) 155-173. The column buffer is Tris buffered saline solution [i.e. 0.05 M Tris (2-amino-2-hydroxymethyl-1,3-propanediol) and 0.15 M sodium chloride in distilled deionized water (ddH₂O)] containing 0.01 % sodium azide. 200 µl of serum is injected and forty 0.5 ml fractions are collected. Cholesterol is assayed on total, 42.2 Ti rotor bottoms and FPLC fractions using the Sigma Diagnostics kit for the enzymatic determination of cholesterol, Procedure No. 352, modified for use with ninety-six well microtiter plates. The reconstituted reagent (after addition of water) contains 300 U/l cholesterol oxidase, 100 U/l cholesterol esterase, 1000 U/l peroxidase (horseradish), 0.3 mmoles/l 4-aminoantipyrine and 30.0 mmoles/l p-hydroxybenzenesulfonate in a pH 6.5 buffer. This method uses cholesterol esterase to hydrolyze cholesterol esters to free cholesterol. Free cholesterol is oxidized to produce hydrogen peroxide that is used to form a quinoneimine dye. Since the reaction takes place quantitatively, the concentration of the dye, measured colorimetrically, is directly proportional to the cholesterol content of the sample. Calibrator, standard and sample may be diluted with saline if cholesterol concentrations cause readings outside the linear range. 20 µl of calibrator, standard or test sample is mixed with a 200 µl aliquot of reagent in a ninety-six well microtiter plate. Each mixture is incubated at 20°-25° for 25 minutes, and absorbance is determined by a colorimetric microtiter plate reader at 490, 492 or 500 nm. Top cholesterol (i.e. LDL-cholesterol) is determined by subtraction. Quality of micro-ultracentrifugation separation is determined by Corning universal agarose gel electrophoresis with Fat Red 7B stain. FPLC fraction Apo A-I content is assessed by the non-reducing SDS-PAGE method of France et al., J. Lipid Res. 30 (1989) 1997-2004. HDL-cholesterol is quantitated by assessing the cholesterol content of fractions containing Apo A-I and lacking immunoreactive Apo B protein. Other conventional methods may be used to assay the blood serum samples for HDL-cholesterol and total triglyceride content.

Apo A-I = assay: Test B: Apo A-I test (rat Apo A-I ELISA on blood serum of the test animals of Test A); assay type: in vivo
Procedure: The Apo A-I blood serum level of the test animals of Test A is determined by rat Apo A-I Enzyme-Linked Immunosorbent Assay (ELISA) as follows:
1. Production and purification of rabbit anti-rat Apo A-I antibody:
Rat Apo A-I is purified from pooled rat blood serum by sequential ultracentrifugation and isolation of rat high-density lipoproteins (HDL). Following delipidation, Apo A-I is resolved from other HDL proteins by gel filtration chromatography. Antisera are raised in three rabbits (Pocono Rabbit Farms, Candensis, PA) by serial subcutaneous injections of purified rat Apo A-I by conventional immunization protocols. After one year of repeated bleedings, antisera are pooled, aliquoted and frozen at -20°. The crude antisera are defrosted, applied to a cyanogen bromide-activated Sepharose^R Cl-4B (beaded agarose having a 60-140 µm dry bead diameter) column to which purified human HDL had been covalently linked, the column is washed with saline, and the purified antibody is eluted with 1 M pH 3 glycine solution. The glycine is removed by dialysis utilizing Tris Buffered Saline Solution to obtain a concentrated solution of purified rabbit anti-rat Apo A-I antibody.
2. Buffers, reagents and standards:
• Sodium carbonate adsorption buffer: 2.25 g of sodium carbonate, 4.40 g of sodium bicarbonate and 0.15 g of sodium azide are dissolved in 1.4 l of ddH₂O, the pH is adjusted to 9.6 with sodium hydroxide, and the buffer is diluted with ddH₂O to a total volume of 1.5 l; • pH 8 0.5 M Tris: a solution of 60.55 g of Tris·HCl (2-amino-2-hydroxymethyl-1,3-propanediol·hydrochloride) in 1.0 l of ddH₂O is adjusted to pH 8.0 with 10 N sodium hydroxide solution; • secondary antibody buffer: 200 ml of pH 8 0.5 M Tris is added to a solution of 40 g of bovine serum albumin (BSA) Cohn Fraction V in 1.8 l of ddH₂O, 0.2 g of sodium azide is added, and 18.0 g of sodium chloride is added; • substrate buffer: 0.1 g of sodium azide is added with stirring to 105.1 g of diethanolamine and 500 ml of ddH₂O, 10 ml of 0.5 M magnesium chloride·hexahydrate solution is added, the pH is adjusted to 9.8 with 12 N hydrochloric acid, and the solution is diluted to a total volume of 1 l with ddH₂O; • 30 x ELISA wash buffer: 525.96 g of sodium chloride, 76.68 g of Tris, 6 g of sodium azide and 30 ml of Tween^R20 [polyoxyethylene (20) sorbitan monolaurate] are combined, the pH is adjusted to 7.3 with 12 N hydrochloric acid, and the solution is diluted to a total volume of 2 l with ddH₂O; • 1 x ELISA wash buffer: 1 volume of 30 x ELISA wash buffer is diluted with 29 volumes of ddH₂O; • sample diluent buffer: 886.34 ml of secondary antibody buffer and 113.66 ml of Tween^R20 are mixed well to obtain an 11.366 % v/v Tween^R20 solution; • standard diluent buffers: (A) 780 mi of secondary antibody buffer and 220 ml of Tween^R20 are mixed well to obtain a 22 % v/v Tween^R20 solution. (B) 890 ml of secondary antibody buffer and 110 ml of Tween^R20 are mixed well to obtain an 11 % v/v Tween^R20 solution; • rat serum pool A: this source of rat blood serum is used to construct the standard curve for each assay. It is calibrated against purified Apo A-I and contains 45 ± 2.7 mg Apo A-I/dl blood serum; • rat serum pool B: this is used as a low internal standard in each assay for monitoring assay drift and contains 40 mg Apo A-I/dl blood serum; • rat serum pool C: this is derived from rats treated with reference compound (gemfibrozil), is used as a high internal standard for monitoring assay drift and contains 70 mg Apo A-I/dl blood serum.
Purified rat Apo A-I from a frozen stock containing 942 µg/ml is diluted in sodium carbonate adsorption buffer to a final concentration of 3.7 µg/ml. Into each well of several Nunc polystyrene ninety-six well microtiter plates is added 100 µl of this solution. Apo A-I is allowed to adsorb onto the plates for 48 hours at 4°. […]

Total triglycerides = Total triglycerides in blood serum of the rats of Test A; assay type: in vivo, Male Sprague-Dawley rats
Procedure: Male Sprague-Dawley rats weighing 200-225 g are housed two per cage and fed Purina Rodent Chow Special Mix 5001-S supplemented with 0.25 % cholic acid and 0.75 % cholesterol by Purina and water ad libitum for seven or eight days. Each test substance is then administered to a group of six rats in the supplemented diet for eight or twenty-one days, the test substance constituing 0.005-0.20 % of the diet. Body weight and food consumption data are recorded prior to diet administration, prior to test substance administration and at termination. Typical doses of the test substance are 4-200 mg/kg/day.
At termination, the rats are anesthetized, sacrificed by exsanguination, the blood is collected, kept on ice while clotting, centrifuged, and the serum is separated. […] Remaining sera aliquots are refrigerated and frozen for storage.
Total triglycerides are assayed on blood serum using the Boehringer Mannheim Diagnostics Reagentset^R Triglycerides-GB kit (Cat. No. 877557) modified for microtiter plate assays as follows: The reagents are prepared according to the described method. 100 µl of Working Solution 1 and 20 µl of dilute blood serum [1:1 blood serum:saline (saline is 0.15 M sodium chloride in ddH₂O)] are added to each well of a ninety-six well microtiter plate, mixed and incubated at 20°-25° for at least 5 minutes. 100 µl of working solution 2 is added to each well, and the contents are mixed and incubated at 20°-25° for at least 5 minutes and read at 490, 492 or 500 nm. The total triglyceride content in mg/dl of blood serum is calculated by comparing the absorbance with the absorbance of known samples.
Other conventional methods may be used to assay the blood serum samples for HDL-cholesterol and total triglyceride content.

[1] = duration of treatment 8 days, dose mg/kg/day: Example 1 60, Example 2 79, Gemfibrozil 50
[2] = duration of treatment 21 days, dose mg/kg/day: Example 1 65, Example 2 73, Gemfibrozil 44

## CCCNC(=S)Nc1cc(Cl)ccc1C [Example 1, N-(5-Chloro-2-methylphenyl)-N'-propylthiourea]
HDL-cholesterol; [1]
  HDL-cholesterol level increase (%): 225%
HDL-cholesterol; [2]
  HDL-cholesterol level increase (%): 256%
Apo A-I; [1]
  Apo-I level increase (%): 65%
Apo A-I; [2]
  Apo-I level increase (%): 47%
Total triglycerides; [1]
  Total triglycerides level decrease (%): 45%
Total triglycerides; [2]
  Total triglycerides level decrease (%): 70%

## Cc1ccc(Cl)cc1NC(=S)NCC(C)C [Example 2, N-(5-Chloro-2-methylphenyl)-N'-2-methylpropylthiourea]
HDL-cholesterol; [1]
  HDL-cholesterol level increase (%): 267%
HDL-cholesterol; [2]
  HDL-cholesterol level increase (%): 323%
Apo A-I; [1]
  Apo-I level increase (%): 69%
Apo A-I; [2]
  Apo-I level increase (%): 102%
Total triglycerides; [1]
  Total triglycerides level decrease (%): 49%
Total triglycerides; [2]
  Total triglycerides level decrease (%): 44%

## Cc1ccc(C)c(OCCCC(C)(C)C(=O)O)c1 [Gemfibrozil, reference compound]
HDL-cholesterol; [1]
  HDL-cholesterol level increase (%): 100%
HDL-cholesterol; [2]
  HDL-cholesterol level increase (%): 106%
Apo A-I; [1]
  Apo-I level increase (%): 50%
Apo A-I; [2]
  Apo-I level increase (%): 44%
Total triglycerides; [1]
  Total triglycerides level decrease (%): 35%
Total triglycerides; [2]
  Total triglycerides level decrease (%): 43%
